Laboratory results published in patent US20260070917A1, “CYCLIN DEPENDENT KINASE DEGRADERS AND METHODS OF USE THEREOF” (Differentiated Therapeutics Inc, priority 2023, published 2026).

Experiments:
Type in all cases: cell-based
CDK9 = target: T1, CDK9 (Homo sapiens, UniProt P50750); assay: HiBit Assay Protocol for CDK9 (HIBIT protein quantification, degradation); conditions: 6 h, HEK293-CDK9-Hibit cells, compound treatment for 6 hours; read-out: CDK9 HIBIT Protein Quantification Maximum
T1 construct: host or cells: HEK293-CDK9-Hibit
Outline: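 HEK293 cells carrying HiBiT-tagged CDK9 treated 6 h with compounds in a 3-fold, 10-point dilution series. CDK9 level read by lytic Nano-Glo HiBiT/LgBiT luminescence and normalized to 0.1% DMSO (high) and medium-only (low) controls. DC50 from curve fitting.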

CCNE1 = target: T2, CCNE1 (Homo sapiens, UniProt P24864); assay: HiBit Assay Protocol for CCNE1 (HIBIT protein quantification, degradation); conditions: HEK293-CCNE1-Hibit cells, compound treatment for 6 hours
T2 construct: host or cells: HEK293-CCNE1-Hibit
Outline: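 HEK293 cells expressing HiBiT-tagged CCNE1 were seeded overnight, then treated 6 h with a 3-fold, 10-point compound dilution series. HiBiT levels were read by lytic LgBiT luminescence and normalised to DMSO-only (high) and medium-only (low) controls. DC50 was derived by curve fitting.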

CDK2 = target: T3, CDK2 (Homo sapiens, UniProt P24941); assay: HiBit Assay Protocol for CDK2 (HIBIT protein quantification, degradation); conditions: HEK293-CDK2-Hibit cells, compound treatment for 6 hours; for DC50: ABS DC50
T3 construct: host or cells: HEK293-CDK2-Hibit
Outline: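 HEK293 cells expressing HiBiT-tagged CDK2 were seeded overnight, then treated 6 h with a 3-fold, 10-point compound dilution series. CDK2 levels were read as luminescence after lytic HiBiT/LgBiT detection, normalised to DMSO-only and medium-only controls, and DC50 derived by curve fitting.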

T2 sequence (P24864 whole entry): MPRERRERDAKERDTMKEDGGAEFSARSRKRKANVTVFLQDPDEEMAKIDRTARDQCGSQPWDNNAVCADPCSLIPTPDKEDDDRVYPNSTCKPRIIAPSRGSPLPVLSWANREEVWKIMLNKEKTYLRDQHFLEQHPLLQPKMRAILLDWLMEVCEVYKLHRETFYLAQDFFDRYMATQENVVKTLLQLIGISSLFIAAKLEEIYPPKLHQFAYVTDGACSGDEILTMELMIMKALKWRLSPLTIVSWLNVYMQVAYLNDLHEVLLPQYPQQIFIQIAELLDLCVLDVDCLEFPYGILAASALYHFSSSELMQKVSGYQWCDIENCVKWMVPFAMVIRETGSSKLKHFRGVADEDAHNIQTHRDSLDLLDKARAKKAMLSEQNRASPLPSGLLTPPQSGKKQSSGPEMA
T1 sequence (P50750 whole entry): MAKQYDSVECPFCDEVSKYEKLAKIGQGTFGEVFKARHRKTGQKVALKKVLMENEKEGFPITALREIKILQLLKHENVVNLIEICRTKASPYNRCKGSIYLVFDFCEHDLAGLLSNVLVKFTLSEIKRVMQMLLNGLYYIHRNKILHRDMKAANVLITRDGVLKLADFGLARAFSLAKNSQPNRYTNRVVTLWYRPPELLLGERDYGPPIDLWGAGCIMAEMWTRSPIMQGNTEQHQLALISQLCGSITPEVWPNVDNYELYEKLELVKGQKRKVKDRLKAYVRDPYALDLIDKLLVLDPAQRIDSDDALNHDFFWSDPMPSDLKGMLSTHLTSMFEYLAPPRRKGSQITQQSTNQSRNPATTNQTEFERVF

SMILES | Dmax (CDK9) [%] | CCNE1 HIBIT Protein Quantification Maximum (CCNE1) [%] | CDK2 HIBIT Protein Quantification Maximum (CDK2) [%] | DC50 (CDK2) [nM]
CC1CCCC1N1C(=O)C2(CC2)c2cnc(NC3CCN(S(=O)(=O)N4CC5(CCN(C(=O)CCCCCCCCCc6cccc7c6n(C)c(=O)n7C6CCC(=O)NC6=O)CC5)C4)CC3)nc21 (centres unmarked) [Compound 51] | 41 | 40 | 56 | 53
CC1CCCC1N1C(=O)C2(CC2)c2cnc(NC3CCN(S(=O)(=O)N4CCC5(CCN(C(=O)CCCCCCCCCc6cccc7c6n(C)c(=O)n7C6CCC(=O)NC6=O)C5)C4)CC3)nc21 (centres unmarked) [Compound 52] | 29 | 19 | 56 | 2
CC1CCCC1N1C(=O)C2(CC2)c2cnc(NC3CCN(S(=O)(=O)C4CCN(C(=O)CCCCCCCCCc5cccc6c5n(C)c(=O)n6C5CCC(=O)NC5=O)C4)CC3)nc21 (centres unmarked) [Compound 53] | 36 | 46 | 62 | 10
CC1CCCC1N1C(=O)C2(CC2)c2cnc(NC3CCN(S(=O)(=O)N4CC5CN(C(=O)CCc6ccc7c(c6)n(C)c(=O)n7C6CCC(=O)NC6=O)CC5C4)CC3)nc21 (centres unmarked) [Compound 55] | 8 | 13 | 25 | –
CC1CCCC1N1C(=O)C2(CC2)c2cnc(NC3CCN(S(=O)(=O)N4CCC5(CCCN5C(=O)CCc5ccc6c(c5)n(C)c(=O)n6C5CCC(=O)NC5=O)C4)CC3)nc21 (centres unmarked) [Compound 56] | 15 | 19 | 41 | –
CC1CCCC1N1C(=O)C2(CC2)c2cnc(NC3CCN(S(=O)(=O)N4CC5(CCCN(C(=O)CCc6ccc7c(c6)n(C)c(=O)n7C6CCC(=O)NC6=O)C5)C4)CC3)nc21 (centres unmarked) [Compound 57] | 15 | 22 | 53 | –
CC1CCCC1N1C(=O)C2(CC2)c2cnc(NC3CCN(S(=O)(=O)N4CC5(CN(C(=O)CCc6ccc7c(c6)n(C)c(=O)n7C6CCC(=O)NC6=O)C5)C4)CC3)nc21 (centres unmarked) [Compound 58] | 9 | 10 | 12 | –
CC1CCCC1N1C(=O)C2(CC2)c2cnc(NC3CCN(S(=O)(=O)N4CC5(CCN(C(=O)CCc6ccc7c(c6)n(C)c(=O)n7C6CCC(=O)NC6=O)CC5)C4)CC3)nc21 (centres unmarked) [Compound 59] | 17 | 24 | 46 | –
CC1CCCC1N1C(=O)C2(CC2)c2cnc(NC3CCN(S(=O)(=O)N4CCC5(CCN(C(=O)CCc6ccc7c(c6)n(C)c(=O)n7C6CCC(=O)NC6=O)C5)C4)CC3)nc21 (centres unmarked) [Compound 60] | 28 | 17 | 18 | –
CC1CCCC1N1C(=O)C2(CC2)c2cnc(NC3CCN(S(=O)(=O)N4CC(N(C)C(=O)CCCc5ccc6c(c5)n(C)c(=O)n6C5CCC(=O)NC5=O)C4)CC3)nc21 (centres unmarked) [Compound 61] | 23 | 29 | 60 | 3
CC1CCCC1N1C(=O)C2(CC2)c2cnc(NC3CCN(S(=O)(=O)N4CCCC45CCN(C(=O)CCCc4ccc6c(c4)n(C)c(=O)n6C4CCC(=O)NC4=O)C5)CC3)nc21 (centres unmarked) [Compound 63] | 14 | 2 | 15 | –
CC1CCCC1N1C(=O)C2(CC2)c2cnc(NC3CCN(S(=O)(=O)N4CCC5(CCCN5C(=O)CCCc5ccc6c(c5)n(C)c(=O)n6C5CCC(=O)NC5=O)C4)CC3)nc21 (centres unmarked) [Compound 64] | 17 | 18 | 29 | –
CC1CCCC1N1C(=O)C2(CC2)c2cnc(NC3CCN(S(=O)(=O)N4CC5(CCCCN5C(=O)CCCc5ccc6c(c5)n(C)c(=O)n6C5CCC(=O)NC5=O)C4)CC3)nc21 (centres unmarked) [Compound 65] | 9 | 4 | 30 | –
CC1CCCC1N1C(=O)C2(CC2)c2cnc(NC3CCN(S(=O)(=O)N4CC5(CCCN(C(=O)CCCc6ccc7c(c6)n(C)c(=O)n7C6CCC(=O)NC6=O)C5)C4)CC3)nc21 (centres unmarked) [Compound 66] | 8 | 14 | 39 | –
CC1CCCC1N1C(=O)C2(CC2)c2cnc(NC3CCN(S(=O)(=O)N4CC5(CCN(C(=O)CCCc6ccc7c(c6)n(C)c(=O)n7C6CCC(=O)NC6=O)CC5)C4)CC3)nc21 (centres unmarked) [Compound 68] | 6 | 9 | 38 | –
CC1CCCC1N1C(=O)C2(CC2)c2cnc(NC3CCN(S(=O)(=O)N4CC5C4CCN5C(=O)CCCc4ccc5c(c4)n(C)c(=O)n5C4CCC(=O)NC4=O)CC3)nc21 (centres unmarked) [Compound 69] | 8 | 8 | 13 | –
CC1CCCC1N1C(=O)C2(CC2)c2cnc(NC3CCN(S(=O)(=O)N4CC5CN(C(=O)CCCc6ccc7c(c6)n(C)c(=O)n7C6CCC(=O)NC6=O)CC54)CC3)nc21 (centres unmarked) [Compound 70] | 15 | 6 | −3 | –
CC1CCCC1N1C(=O)C2(CC2)c2cnc(NC3CCN(S(=O)(=O)N4CCCN(C(=O)CCCc5ccc6c(c5)n(C)c(=O)n6C5CCC(=O)NC5=O)CC4)CC3)nc21 (centres unmarked) [Compound 72] | 42 | 8 | 25 | –
CC1CCCC1N1C(=O)C2(CC2)c2cnc(NC3CCN(S(=O)(=O)N4CCCC45CCN(C(=O)CCCCCc4ccc6c(c4)n(C)c(=O)n6C4CCC(=O)NC4=O)C5)CC3)nc21 (centres unmarked) [Compound 74] | 8 | 29 | 19 | –
CC1CCCC1N1C(=O)C2(CC2)c2cnc(NC3CCN(S(=O)(=O)N4CC5(CCCCN5C(=O)CCCCCc5ccc6c(c5)n(C)c(=O)n6C5CCC(=O)NC5=O)C4)CC3)nc21 (centres unmarked) [Compound 76] | 9 | 20 | 29 | –
CC1CCCC1N1C(=O)C2(CC2)c2cnc(NC3CCN(S(=O)(=O)N4CCN(C(=O)CCCCCc5ccc6c(c5)n(C)c(=O)n6C5CCC(=O)NC5=O)CC4)CC3)nc21 (centres unmarked) [Compound 77] | 40 | 25 | 46 | –
CC1CCCC1N1C(=O)C2(CC2)c2cnc(NC3CCN(S(=O)(=O)N4CC5C4CCN5C(=O)CCCCCc4ccc5c(c4)n(C)c(=O)n5C4CCC(=O)NC4=O)CC3)nc21 (centres unmarked) [Compound 78] | 23 | 17 | 29 | –
CC1CCCC1N1C(=O)C2(CC2)c2cnc(NC3CCN(S(=O)(=O)N4CC5CN(C(=O)CCCCCc6ccc7c(c6)n(C)c(=O)n7C6CCC(=O)NC6=O)CC54)CC3)nc21 (centres unmarked) [Compound 79] | 21 | 16 | 6 | –
CC1CCCC1N1C(=O)C2(CC2)c2cnc(NC3CCN(S(=O)(=O)N4CCCN(C(=O)CCCCCc5ccc6c(c5)n(C)c(=O)n6C5CCC(=O)NC5=O)CC4)CC3)nc21 (centres unmarked) [Compound 80] | 8 | 29 | 24 | –
CC1CCCC1N1C(=O)C2(CC2)c2cnc(NC3CCN(S(=O)(=O)C4CCN(C(=O)CCCCCc5ccc6c(c5)n(C)c(=O)n6C5CCC(=O)NC5=O)C4)CC3)nc21 (centres unmarked) [Compound 81] | 14 | 15 | 50 | 8
CC1CCCC1N1C(=O)C2(CC2)c2cnc(NC3CCN(S(=O)(=O)C4CCCN(C(=O)CCCCCc5ccc6c(c5)n(C)c(=O)n6C5CCC(=O)NC5=O)C4)CC3)nc21 (centres unmarked) [Compound 82] | 11 | 43 | 26 | –
